Assay results taken from article PMC7126698 (Bioorganic & Medicinal Chemistry, 2008).

Test system: mature 3CL protease
Format: biochemical, SARS coronavirus

H-Thr-Ser-Ala-Val-Leu-Gln-Ser-Gly-Phe-Arg-Lys-NH2 [SO1]
disappearance of SO1: completely disappeared within 1 h
